The nature of this series: Test Program #1: solubility of dodecanedioic acid powder in bitumen wafer. The conditions noted are these: ambient temperature, 3 days. In kind it is physicochemical. An excerpt:
The solubility of dodecanedioic acid powder in bitumen was proven in laboratory experiments in which a 30-gram bitumen core sample was compressed at 1,000 pounds per square inch using a compactor, to make bitumen wafers having a diameter of 2.75 cm and a depth (thickness) of 1.8 cm. The bitumen wafer was rolled over carefully in a container with a sufficient quantity of dodecanedioic acid powder. The surface of bitumen wafer was covered with a thin layer of the dodecanedioic acid powder, and the color of the bitumen turned from black to white.

Molecules are shown by their SMILES.

We go through one molecule from US20140148368A1, “DRILLING FLUIDS AND DRILLING FLUID ADDITIVES FOR TREATMENT OF BITUMEN IN WELLBORE CUTTINGS” (Marquis Alliance Energy Group Inc., priority 2012, published 2014).

Regarding `O=C(O)CCCCCCCCCCC(=O)O` [dodecanedioic acid], the “solubility of powder in bitumen (visual inspection of powder-covered wafer)” value is given as “all of the white dodecanedioic acid powder had disappeared”.
